# System: Mycobacterium tuberculosis (M. tuberculosis Kurono)
# Assay: Antibacterial test (agar dilution method), M. tuberculosis Kurono
# Assay type: cell-based
# Conditions: Mycobacterium tuberculosis, 336 h; 7H11 agar medium, about 10^6 CFU/mL, 37° C. for 14 days; read-out: Minimum inhibitory concentration (MIC) kurono
row,SMILES,MIC
1,"O=c1ccc2c(OC[C@]3(O)CCN(c4ccc(Br)cc4F)C[C@H]3O)ccc(F)c2[nH]1 (relative stereo) [Example 369, 5-{[(3R*,4R*)-1-(4-Bromo-2-fluorophenyl)-3,4-dihydroxypiperidin-4-yl]methoxy}-8-fluoroquinolin-2(1H)-one]",< 0.39 µg/mL
2,"O=C1CCc2c(OC[C@H]3CCN(c4ccc(Cl)cc4F)C[C@@H]3O)ccc(F)c2N1 (relative stereo) [Example 419, 5-{[(3R*,4R*)-1-(4-Chloro-2-fluorophenyl)-3-hydroxypiperidin-4-yl]methoxy}-8-fluoro-3,4-dihydroquinolin-2(1H)-one]",< 0.39 µg/mL
3,"O=C1CCc2c(OC[C@]3(O)CC[C@@H](c4ccc(Cl)cc4F)C[C@H]3O)ccc(F)c2N1 (relative stereo) [Example 471, 5-{[(1R*,2R*,4R*)-4-(4-Chloro-2-fluorophenyl)-1,2-dihydroxycyclohexyl]methoxy}-8-fluoro-3,4-dihydroquinolin-2(1H)-one]",< 0.39 µg/mL
4,"O=C1CCc2c(OC[C@]3(O)CC[C@@](O)(c4ccc(Cl)cc4F)C[C@H]3O)ccc(F)c2N1 (relative stereo) [Example 473, 5-{[(1R*,2R*,4S*)-4-(4-Chloro-2-fluorophenyl)-1,2,4-trihydroxycyclohexyl]methoxy}-8-fluoro-3,4-dihydroquinolin-2(1H)-one]",< 0.39 µg/mL
5,"NC1(COc2ccc(F)c3c2CCC(=O)N3)CCN(c2ncc(Cl)cc2Cl)CC1 [Example 1, 5-{[4-Amino-1-(3,5-dichloropyridin-2-yl)piperidin-4-yl]methoxy}-8-fluoro-3,4-dihydroquinolin-2(1H)-one]",< 0.39 µg/mL
6,"NC1(COc2ccc(Cl)c3c2CCC(=O)N3)CCN(c2ccc(Cl)cc2F)CC1 [Example 14, 5-{[4-Amino-1-(4-chloro-2-fluorophenyl)piperidin-4-yl]methoxy}-8-chloro-3,4-dihydroquinolin-2(1H)-one]",< 0.39 µg/mL
7,"NC1(COc2ccc(Cl)c3[nH]c(=O)ccc23)CCN(c2ccc(Cl)cc2F)CC1 [Example 17, 5-{[4-Amino-1-(4-chloro-2-fluorophenyl)piperidin-4-yl]methoxy}-8-chloroquinolin-2(1H)-one]",< 0.39 µg/mL
8,"O=C1CCc2c(OCC3(O)CCN(c4ccc(Cl)cc4)CC3)ccc(F)c2N1 [Example 49, 5-{[1-(4-Chlorophenyl)-4-hydroxypiperidin-4-yl]methoxy}-8-fluoro-3,4-dihydroquinolin-2(1H)-one]",< 0.39 µg/mL
9,"O=C1CCc2c(OCC3(O)CCN(c4ccc(Br)cc4F)CC3)cc(F)c(F)c2N1 [Example 130, 5-{[1-(4-Bromo-2-fluorophenyl)-4-hydroxypiperidin-4-yl]methoxy}-7,8-difluoro-3,4-dihydroquinolin-2(1H)-one]",< 0.39 µg/mL
10,"O=C1CCc2c(cc(F)cc2OCC2(O)CCN(c3ccc(Cl)cc3F)CC2)N1 [Example 194, 5-{[1-(4-Chloro-2-fluorophenyl)-4-hydroxypiperidin-4-yl]methoxy}-7-fluoro-3,4-dihydroquinolin-2(1H)-one]",< 0.39 µg/mL
11,"Cc1c(F)cc(OCC2(O)CCN(c3cc(F)c(Cl)cc3Cl)CC2)c2c1NC(=O)CC2 [Example 206, 5-{[1-(2,4-Dichloro-5-fluorophenyl)-4-hydroxypiperidin-4-yl]methoxy}-7-fluoro-8-methyl-3,4-dihydroquinolin-2(1H)-one]",< 0.39 µg/mL
12,"O=C1CCc2c(OCC3(O)CCN(c4c(F)cc(F)cc4F)CC3)cc(F)c(Cl)c2N1 [Example 214, 8-Chloro-7-fluoro-5-{[4-hydroxy-1-(2,4,6-trifluorophenyl)piperidin-4-yl]methoxy}-3,4-dihydroquinolin-2(1H)-one]",< 0.39 µg/mL
13,"O=C1CCc2c(OC[C@]3(O)CCN(c4ncc(Cl)cc4Cl)C[C@H]3O)ccc(F)c2N1 [Example 251, 5-{[(3R,4R)-1-(3,5-Dichloropyridin-2-yl)-3,4-dihydroxypiperidin-4-yl]methoxy}-8-fluoro-3,4-dihydroquinolin-2(1H)-one]",< 0.39 µg/mL

# System: not given
# Assay: not given
# Conditions: not given
row,melting point,SMILES
1,214 to 216 °C,O=C1CCc2c(OC[C@]3(O)CCN(c4ccc(Br)cc4F)C[C@H]3O)cc(F)c(F)c2N1 (relative stereo)
2,194 °C,O=C1CCc2c(OC[C@]3(O)CCN(c4ccc(Br)cc4F)C[C@H]3O)cc(F)c(Cl)c2N1 (relative stereo)
3,184 to 185 °C,O=C1CCc2c(OC[C@@]3(O)CCN(c4cc(F)c(Cl)cc4F)C[C@H]3O)ccc(F)c2N1 (relative stereo)
4,209 to 210 °C,O=C1CCc2c(OC[C@]3(O)CCN(c4c(F)cc(Br)cc4F)C[C@@H]3O)ccc(F)c2N1 (relative stereo)
5,206 to 207 °C,N#C[C@H]1CN(c2ncc(Cl)cc2Cl)CC[C@@]1(O)COc1ccc(F)c2c1CCC(=O)N2 (relative stereo)
6,182.6 to 187.5 °C,C[C@]1(O)CN(c2ncc(Cl)cc2Cl)CC[C@]1(O)COc1ccc(F)c2c1CCC(=O)N2 (relative stereo)
7,194 to 195 °C,O=C1CCc2c(OC[C@]3(O)CCN(c4ccc(Cl)cc4F)C[C@H]3F)ccc(F)c2N1 (relative stereo)
8,221.5 to 222 °C,O=C1CCc2c(OCC3(O)[C@H](O)CN(c4c(F)cc(Cl)cc4F)C[C@H]3O)ccc(F)c2N1 (relative stereo)
9,190 to 192 °C,O=C1CCc2c(OC[C@]3(O)CCN(c4ccc(Br)cc4F)C[C@H]3O)ccc(Cl)c2N1 (relative stereo) [Example 269]
10,201 to 204 °C,O=C1CCc2c(OC[C@]3(O)CCN(c4c(F)cc(Cl)cc4F)C[C@H]3O)cc(F)c(Cl)c2N1 (relative stereo) [Example 277]
11,191 to 193 °C,O=C1CCc2c(OC[C@]3(O)CCN(c4c(F)cc(Br)cc4F)C[C@H]3O)ccc(F)c2N1 (relative stereo) [Example 301]
12,215 to 218 °C,O=C1CCc2c(OC[C@]3(O)CCN(c4c(F)cc(F)cc4Cl)C[C@H]3O)ccc(F)c2N1 (relative stereo) [Example 303]
13,198 to 199 °C,O=C1CCc2c(OC[C@]3(O)CCN(c4c(F)cc(F)cc4F)C[C@H]3O)ccc(F)c2N1 (relative stereo) [Example 305]
14,201 to 202 °C,O=C1CCc2c(OC[C@]3(O)CCN(c4c(F)cc(OCC(F)(F)F)cc4F)C[C@H]3O)ccc(F)c2N1 (relative stereo) [Example 310]
15,167 to 169 °C,O=C1CCc2c(OC[C@]3(O)CCN(c4c(F)cc(OC(F)F)cc4F)C[C@H]3O)ccc(F)c2N1 (relative stereo) [Example 314]
16,199 to 202 °C,CCOc1cc(F)c(N2CC[C@@](O)(COc3ccc(F)c4c3CCC(=O)N4)[C@H](O)C2)c(F)c1 (relative stereo) [Example 316]
17,220.5 to 221.3 °C,O=C1CCc2c(OC[C@]3(O)CCN(c4ccc(Cl)cc4F)C[C@H]3O)cc(F)c(F)c2N1 (relative stereo) [Example 330]
18,195.5 to 195.6 °C,O=C1CCc2c(OC[C@]3(O)CCN(c4ccc(Cl)cc4F)C[C@H]3O)ccc(Cl)c2N1 (relative stereo) [Example 334]

row,melting point,SMILES
1,182.4 to 182.5 °C,O=C1CCc2c(OC[C@]3(O)CCN(c4ccc(F)cc4)C[C@H]3O)ccc(F)c2N1 (relative stereo) [Example 336]
2,195 to 198 °C,O=C1CCc2c(OC[C@]3(O)CCN(c4c(F)cc(Br)cc4F)C[C@H]3O)ccc(Cl)c2N1 (relative stereo) [Example 339]
3,233 °C,O=C1CCc2c(cccc2OC[C@]2(O)CCN(c3c(F)cc(Cl)cc3F)C[C@H]2O)N1 (relative stereo) [Example 349]
4,232 °C,O=c1ccc2c(OC[C@]3(O)CCN(c4c(F)cc(Cl)cc4F)C[C@H]3O)ccc(F)c2[nH]1 (relative stereo) [Example 371]
5,183 to 184 °C,O=C1CCc2c(OC[C@]3(O)CCN(c4ccc(Br)cc4F)C[C@H]3O)ccc(Cl)c2N1 [Example 271]
6,192 to 194 °C,O=C1CCc2c(OC[C@]3(O)CCN(c4c(F)cc(Cl)cc4F)C[C@H]3O)cc(F)c(Cl)c2N1 [Example 278]
7,197 to 198 °C,O=C1CCc2c(OC[C@]3(O)CCN(c4c(F)cc(Br)cc4F)C[C@H]3O)ccc(F)c2N1 [Example 302]
8,188 to 189 °C,O=C1CCc2c(OC[C@]3(O)CCN(c4c(F)cc(F)cc4Cl)C[C@H]3O)ccc(F)c2N1 [Example 304]
9,191 to 192 °C,O=C1CCc2c(OC[C@]3(O)CCN(c4c(F)cc(F)cc4F)C[C@H]3O)ccc(F)c2N1 [Example 306]
10,187 °C,O=C1CCc2c(OC[C@]3(O)CCN(c4c(F)cc(OCC(F)(F)F)cc4F)C[C@H]3O)ccc(F)c2N1 [Example 311]
11,166 °C,O=C1CCc2c(OC[C@]3(O)CCN(c4c(F)cc(OC(F)F)cc4F)C[C@H]3O)ccc(F)c2N1 [Example 315]
12,176 to 178 °C,CCOc1cc(F)c(N2CC[C@@](O)(COc3ccc(F)c4c3CCC(=O)N4)[C@H](O)C2)c(F)c1 [Example 317]
13,192.6 to 193.4 °C,O=C1CCc2c(OC[C@]3(O)CCN(c4ccc(Cl)cc4F)C[C@H]3O)cc(F)c(F)c2N1 [Example 324]
14,203.6 to 203.7 °C,O=C1CCc2c(OC[C@]3(O)CCN(c4c(F)cc(Br)cc4F)C[C@H]3O)ccc(Cl)c2N1 [Example 326]
15,185 to 186.4 °C,O=C1CCc2c(OC[C@]3(O)CCN(c4ccc(Cl)cc4F)C[C@H]3O)ccc(Cl)c2N1 [Example 328]
16,185.2 to 185.3 °C,O=C1CCc2c(OC[C@]3(O)CCN(c4ccc(F)cc4)C[C@H]3O)ccc(F)c2N1 [Example 337]
17,247.4 to 247.5 °C,O=c1ccc2c(OC[C@]3(O)CCN(c4c(F)cc(Cl)cc4F)C[C@H]3O)ccc(F)c2[nH]1 [Example 367]

row,SMILES,melting point
1,O=C1CCc2c(OC[C@@]3(O)CCN(c4ccc(Cl)cc4F)C[C@@H]3O)ccc(F)c2N1 (relative stereo),191.9 to 193.5 °C
2,O=C1CCc2c(OC[C@]3(O)CCN(c4c(F)cc(Cl)cc4F)C[C@@H]3F)ccc(F)c2N1 (relative stereo) [Example 439],223 to 224 °C
3,O=C1CCc2c(OC[C@]3(O)CCN(c4c(F)cc(Cl)cc4F)C[C@H]3F)ccc(F)c2N1 (relative stereo) [Example 440],222 to 223 °C

# Source: patent US10464926B2, “Heterobicyclic compounds and their use for the treatment of tuberculosis” (OTSUKA PHARMACEUTICAL CO., LTD., priority 2014, dated 2019)
